Test systems include HOP-62 NSCLC; HOP-92 NSCLC; HT29 colon; MCF7 breast; NCI-H226 lung; OVCAR-4 ovarian; RPMI-8226 leukemia; SF-295 CNS; SF-539 CNS; SW-620 colon.
Common to all, as to assay: growth of human tumour cells (NCI), 48 h

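Growth conditions: 96-well plates. Treatment: test compound, 48 hours, 5 concentrations. Analysis: linear interpolation between bracketing concentrations; unreached endpoints set to highest concentration. Here, GI50 denotes the concentration required for 50% inhibition of growth. TGI: total growth inhibition.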

Regarding `CC1=CC(O)C(C(O)(C(F)(F)F)C(F)(F)F)C(C)(C)C1` (stereo not given), the TGI in the assay with HOP-62 NSCLC, in the assay on HOP-92 NSCLC, with HT29 colon, with MCF7 breast, with NCI-H226 lung and in the assay with OVCAR-4 ovarian was more than 10 µM throughout. Further, the TGI with RPMI-8226 leukemia, with SF-295 CNS, in the assay with SF-539 CNS and in the assay on SW-620 colon was more than 10 µM each time.

`CC1(C(=O)O)C[C@](C)(C(=O)OCc2ccccc2)C[C@](C)(C(=O)OCc2ccccc2)C1` (stereo not given in full): the TGI in the assay on HOP-62 NSCLC was more than 100 µM; with HOP-92 NSCLC, 54 µM; with HT29 colon it was more than 100 µM; in the assay on MCF7 breast, more than 100 µM; with NCI-H226 lung, more than 100 µM; in the assay with OVCAR-4 ovarian, more than 100 µM. Also, the TGI with RPMI-8226 leukemia is 72.6 µM; in the assay with SF-295 CNS, 61.9 µM; with SF-539 CNS, 64.5 µM; in the assay on SW-620 colon, more than 100 µM.

Turning to `O=C(Nc1ccc(-n2ccc3c(NC(=O)c4ccccc4)nccc32)cc1)Nc1cccc(C(F)(F)F)c1`, the GI50 was 5.65 µM in the assay on HOP-62 NSCLC; 2.59 µM in the assay with HOP-92 NSCLC; 1.85 µM with HT29 colon; 6.61 µM with MCF7 breast; 14.3 µM in the assay with NCI-H226 lung; 2.65 µM in the assay with OVCAR-4 ovarian. Moreover, the GI50 is 1.64 µM in the assay on RPMI-8226 leukemia, 3.75 µM with SF-295 CNS, 1.75 µM in the assay on SF-539 CNS and 4.96 µM with SW-620 colon. Further, the TGI with HOP-62 NSCLC was determined as 19.1 µM; with HOP-92 NSCLC, 11.7 µM; in the assay with HT29 colon it was 4.93 µM; in the assay on MCF7 breast it was 24.8 µM; in the assay with NCI-H226 lung it was 29.8 µM; with OVCAR-4 ovarian, 10.5 µM. Moreover, the TGI in the assay with RPMI-8226 leukemia stood at 4.81 µM; in the assay with SF-295 CNS, 18.8 µM; in the assay on SF-539 CNS, 18.4 µM; in the assay with SW-620 colon, 18.9 µM.

`O=S(=O)(O)c1ccc2c(N=Nc3ccc(N=Nc4ccccc4)cc3)c(O)c(S(=O)(=O)O)cc2c1`: the TGI with HOP-62 NSCLC, in the assay with HOP-92 NSCLC, in the assay with HT29 colon, with MCF7 breast, in the assay with NCI-H226 lung and in the assay with OVCAR-4 ovarian was more than 100 µM in each case. For the same compound, the TGI in the assay with RPMI-8226 leukemia, with SF-295 CNS, in the assay with SF-539 CNS and with SW-620 colon was more than 100 µM throughout.

Consider `CCN1CCN(c2nc3ccccc3nc2C(=O)c2ccc(OC)c(OC)c2)CC1`, for which the TGI in the assay on HOP-62 NSCLC is more than 100 µM; in the assay on HOP-92 NSCLC it was 70.2 µM; in the assay on HT29 colon, 39.4 µM; in the assay on MCF7 breast, 45.5 µM; in the assay with NCI-H226 lung it was more than 100 µM; with OVCAR-4 ovarian it was 25.7 µM. The TGI with RPMI-8226 leukemia is 35.8 µM; with SF-295 CNS, 30 µM; in the assay on SF-539 CNS it was 3.14 µM; with SW-620 colon, more than 100 µM.

Source of the values: PubChem BioAssay (NCI).
